From article PMC12320245 (International Journal of Biological Sciences, 2025)

How the values were obtained:
hippocampus of TBI rats = experiment: Controlled cortical impact TBI: Fluoro-Jade B neuronal death; format: in vivo, rat; settings: ipsilateral CA1, CA3, GCL, hilus, 24 hours post-TBI, vs TBI-vehicle
Method: This study used male Sprague-Dawley rats weighing 300-350 g and aged 8 weeks, obtained from DBL Co. (Chungcheongbuk-do, Republic of Korea). The rats were housed in a controlled environment with a temperature of 20 ± 2 °C, a relative humidity of 55 ± 5%, and a 12-hour light/dark cycle. They were provided ad libitum access to food and water. To minimize stress associated with transportation, animals underwent a one-week acclimatization period before the start of the experiments. All experimental procedures were conducted in compliance with the guidelines of the National Institutes of Health for the care and use of laboratory animals and were approved by the Hallym University Institutional Animal Care and Use Committee (protocol # Hallym 2022-23, approved on July 15, 2022). This manuscript follows the principles outlined in the Animal research: reporting in vivo experiments (ARRIVE) guidelines.
A controlled cortical impact (CCI) model was used to induce TBI in rats. […]
Neuronal death was assessed 24 hours after TBI via Fluoro-Jade B (FJB) staining, a method designed for detecting degenerating neurons. […] FJB-positive cells were quantified in hippocampal subregions, including CA1 (Cornu Ammonis 1), CA3 (Cornu Ammonis 3), GCL (granule cell layer), and the hilus.

[1] = system: primary hippocampal neurons; experiment: Scratch injury: p-PKA analysis; format: cell-based, rat; settings: 10 μM AMX immediately after scratch, 6 hours post-injury
Method: Primary hippocampal neurons were obtained from embryonic day 18 (E18) Sprague-Dawley rat embryos. Pregnant rats were anesthetized using 2-3% isoflurane in a gas mixture of 70% nitrous oxide and 30% oxygen. Following euthanasia, the hippocampi were carefully dissected, minced, and enzymatically dissociated using TrypLE Express (Gibco, NY, USA) for 10 minutes at 37°C. The tissue was further mechanically dissociated using fire-polished glass pipettes, and the resulting cell suspension was filtered through a 70 μm cell strainer to remove debris. Neurons were seeded at a density of 3 × 10^5 cells per well in 24-well plates pre-coated with poly-L-lysine (Sigma-Aldrich, Saint Louis, MO, USA). […]
A scratch injury model was used to mimic TBI in vitro. […] After the treatment period, neuronal damage and recovery were assessed using appropriate evaluation methods.
Six hours after the scratch assay, cellular activity was terminated by replacing the culture medium with 0.1 M HCl. Cell lysates were then collected and analyzed for PKA activity using a commercial PKA kinase activity assay kit (Abcam, ab139435), following the manufacturer's protocol. […] Substrate phosphorylation was detected using a phospho-specific primary antibody and an HRP-conjugated secondary antibody. […] PKA activity was quantified as optical density (OD) values and expressed relative to control samples.

[2] = system: cultured cortical astrocytes; experiment: p-PKA substrate Western blot in astrocytes; format: cell-based; settings: 10 µM AMX for 1 and 4 hours
astrocytes = experiment: Lysosomal pH detection (DND-189 fluorescence); format: cell-based; settings: 10 μM AMX with 100 nM BafA1
PKA = PKA colorimetric activity assay (test tubes); format: biochemical; settings: 0.1-10 µM
Method: PKA activity was assessed using a microplate-based kinase activity assay. Each well contained reaction buffer, a purified PKA enzyme, and test samples, followed by adding 10 μL of adenosine triphosphate (ATP) solution to initiate the reaction. Plates were incubated at 30°C for 90 minutes, before being washed four times with wash buffer to remove unbound components. Next, 25 μL each of phospho-PKA substrate antibody and horseradish peroxidase (HRP)-conjugated secondary antibody (donkey anti-rabbit IgG) were added to each well. The plates were incubated at room temperature (RT) for 60 minutes under continuous shaking to ensure uniform binding. To detect the phosphorylated substrate, 100 μL of tetramethylbenzidine (TMB) substrate was added to each well, followed by a 30-minute incubation at RT. The reaction was terminated by adding stop solution, and the absorbance was measured at 450 nm by using a microplate reader to quantify PKA activity.

SMILES: CC(C)c1ccc2oc3nc(N)c(C(=O)O)cc3c(=O)c2c1 [AMX, amlexanox]
- number of FJB-positive degenerating neurons (hippocampus of TBI rats): significantly reduced the number of FJB-positive degenerating neurons
- p-PKA levels after scratch injury (ELISA) [1]: restored cAMP and p-PKA levels
- p-PKA levels [2]: increased p-PKA levels
- lysosomal pH (DND-189 fluorescence), reversal of BafA1 effect (astrocytes): effectively reversed BafA1-induced alkalization
- PKA activity in test tubes (PKA): activates PKA
